Columns and labels:
Assay type in all cases: biochemical
[1] = molecular target: T1, human PKCθ full length enzyme (Homo sapiens, UniProt Q04759); experiment: PKCθ IMAP assay (fluorescence polarization); conditions: human PKCθ full length enzyme, IMAP; average value; read-out: IC50 PKCθ IMAP
T1 construct: human PKCθ full length enzyme (Panvera Cat# P2996); purchased Panvera P2996

[2] = molecular target: T2, purified recombinant full length PKC theta (Panvera, P2996) (Homo sapiens, UniProt Q04759); experiment: Radioactive kinase assay for inhibition of full length (FL) PKCθ; conditions: average value
T2 construct: purified recombinant full length PKC theta (Panvera, P2996); purchased Panvera P2996
Method: This assay is based on the phosphorylation of a biotinylated substrate by a kinase utilizing radiolabeled ATP (ATP γ P33). The substrate was a biotinylated peptide with a sequence of biotin-[…]-C(O)NH2. […] The assay buffer was composed of 100 mM Hepes, pH7.5, 2 mM MgCl2, 20 mM β-glycerophosphate and 0.008% TritonX 100. A reaction mixture of ATP, ATP γ P33 (PerkinElmer), DTT, and the enzyme was prepared in the assay buffer and added to a 96-well polypropylene plate. The compound (diluted in DMSO in a separate 96-well polypropylene plate) was added to the reaction mixture and incubated at room temperature. Following the incubation, the peptide substrate was added to the reaction mixture to initiate the enzymatic reaction. The reaction was terminated with the addition of a stop solution (100 mM EDTA, 0.2% TritonX100, and 20 mM NaHPO4) and transferred from the assay plate to a washed streptavidin-coated 96-well scintiplate (PerkinElmer). […] Counts were recorded for each well as corrected counts per minute (CCPM). The counts were considered corrected because they were adjusted according to a P33 normalization protocol, which corrects for efficiency and background differences between the instrument detectors (software version 4.40.01).
A Radioactive Kinase Assay for Inhibition of Full Length (FL) PKCθ Inhibitors
This assay differs from what was described above in that the enzyme used was purified recombinant full length PKC theta (Panvera, P2996).

[3] = molecular target: T3, purified recombinant active kinase domain of full length PKC theta (amino acids 362-706) (Homo sapiens, UniProt Q04759); experiment: Radioactive kinase assay for inhibition of the active kinase domain (KD) of PKCθ; conditions: active kinase domain of PKC theta (amino acids 362-706), average value, read-out: IC50 PKCθKD
T3 construct: active kinase domain of full length PKC theta (amino acids 362-706)
Method: A Radioactive Kinase Assay for Inhibition of the Active Kinase Domain (KD) of PKCθ
This assay is based on the phosphorylation of a biotinylated substrate by a kinase utilizing radiolabeled ATP (ATP γ P33). The substrate was a biotinylated peptide with a sequence of biotin-[…]-C(O)NH2. The enzyme was purified recombinant active kinase domain of full length PKC theta (amino acids 362-706). The assay buffer was composed of 100 mM Hepes, pH7.5, 2 mM MgCl2, 20 mM β-glycerophosphate and 0.008% TritonX 100. A reaction mixture of ATP, ATP γ P33 (PerkinElmer), DTT, and the enzyme was prepared in the assay buffer and added to a 96-well polypropylene plate. The compound (diluted in DMSO in a separate 96-well polypropylene plate) was added to the reaction mixture and incubated at room temperature. Following the incubation, the peptide substrate was added to the reaction mixture to initiate the enzymatic reaction. The reaction was terminated with the addition of a stop solution (100 mM EDTA, 0.2% TritonX100, and 20 mM NaHPO4) and transferred from the assay plate to a washed streptavidin-coated 96-well scintiplate (PerkinElmer). The scintiplate was incubated at room temperature, washed in PBS with 0.1% TritonX 100, and counted in the 1450 Microbeta Trilux (Wallac, Version 2.60). Counts were recorded for each well as corrected counts per minute (CCPM). The counts were considered corrected because they were adjusted according to a P33 normalization protocol, which corrects for efficiency and background differences between the instrument detectors (software version 4.40.01).

T1 sequence (Q04759 whole entry): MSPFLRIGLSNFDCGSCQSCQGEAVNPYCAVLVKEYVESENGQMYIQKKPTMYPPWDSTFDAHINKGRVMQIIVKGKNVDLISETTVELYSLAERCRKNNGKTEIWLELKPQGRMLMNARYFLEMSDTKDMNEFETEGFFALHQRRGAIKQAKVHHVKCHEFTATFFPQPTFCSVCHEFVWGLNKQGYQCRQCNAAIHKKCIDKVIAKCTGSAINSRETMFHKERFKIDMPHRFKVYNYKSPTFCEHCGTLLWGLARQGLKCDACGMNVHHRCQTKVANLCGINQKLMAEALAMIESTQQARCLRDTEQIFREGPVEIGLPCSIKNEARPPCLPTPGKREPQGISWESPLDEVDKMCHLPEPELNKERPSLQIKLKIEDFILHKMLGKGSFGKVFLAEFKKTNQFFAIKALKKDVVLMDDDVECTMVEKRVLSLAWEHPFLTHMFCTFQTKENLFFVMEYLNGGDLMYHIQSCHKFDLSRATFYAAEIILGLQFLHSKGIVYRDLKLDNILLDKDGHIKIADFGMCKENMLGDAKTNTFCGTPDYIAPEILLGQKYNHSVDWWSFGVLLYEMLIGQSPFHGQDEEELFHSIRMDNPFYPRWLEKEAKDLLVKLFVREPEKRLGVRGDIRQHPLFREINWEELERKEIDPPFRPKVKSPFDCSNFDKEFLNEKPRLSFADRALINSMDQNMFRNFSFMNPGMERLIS
T2 sequence (Q04759 whole entry): as above
T3 sequence (Q04759 362-706): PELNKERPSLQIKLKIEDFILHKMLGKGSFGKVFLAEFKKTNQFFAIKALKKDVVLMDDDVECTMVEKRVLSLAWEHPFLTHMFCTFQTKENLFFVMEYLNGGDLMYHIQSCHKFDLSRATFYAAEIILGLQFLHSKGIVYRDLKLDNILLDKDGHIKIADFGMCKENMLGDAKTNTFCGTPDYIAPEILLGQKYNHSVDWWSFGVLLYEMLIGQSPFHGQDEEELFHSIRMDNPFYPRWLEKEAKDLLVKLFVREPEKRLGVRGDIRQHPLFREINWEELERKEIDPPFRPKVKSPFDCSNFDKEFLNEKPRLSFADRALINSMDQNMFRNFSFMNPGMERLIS

Structure (SMILES) | IC50 [1] | IC50 [2] | IC50 [3]
CC(=O)Nc1ccc(-c2cccc(-c3cncc(C#N)c3Nc3ccc4[nH]ccc4c3)c2)cc1 [Compound 120, N-{3′-[5-cyano-4-(1H-indol-5-ylamino)pyridin-3-yl]biphenyl-4-yl}acetamide] | 230 nM | 120 nM | –
N#Cc1cncc(-c2cccc(-c3ncccn3)c2)c1Nc1ccc2[nH]ccc2c1 [Compound 138, 4-(1H-indol-5-ylamino)-5-(3-pyrimidin-2-ylphenyl)nicotinonitrile] | 190 nM | 100 nM | –
COc1ccc(-c2cncc(C#N)c2Nc2ccc3[nH]ccc3c2)cc1OC [Compound 101, 5-(3,4-dimethoxyphenyl)-4-(1H-indol-5-ylamino)nicotinonitrile] | 140 nM | 83 nM | 140 nM
N#Cc1cncc(-c2cccc(-c3ccccc3Cl)c2)c1Nc1ccc2[nH]ccc2c1 [Compound 129, 5-(2′-chlorobiphenyl-3-yl)-4-(1H-indol-5-ylamino)nicotinonitrile] | 240 nM | 60 nM | –
COc1ccc(-c2cncc(C#N)c2Nc2cccc3c2CCCC3)cc1OC [Compound 105, 5-(3,4-dimethoxyphenyl)-4-(5,6,7,8-tetrahydronaphthalen-1-ylamino)nicotinonitrile] | – | – | 2660 nM
N#Cc1cncc(-c2cccc(-c3cccc(Cl)c3)c2)c1Nc1ccc2[nH]ccc2c1 [Compound 130, 5-(3′-chlorobiphenyl-3-yl)-4-(1H-indol-5-ylamino)nicotinonitrile] | 160 nM | 80 nM | –
COc1ccc(-c2cncc(C#N)c2Nc2ccc3c(c2)OCCO3)cc1OC [Compound 106, 4-(2,3-dihydro-1,4-benzodioxin-6-ylamino)-5-(3,4-dimethoxyphenyl)nicotinonitrile] | – | – | 11400 nM
COc1ccc(-c2cncc(C#N)c2Nc2cccc3nsnc23)cc1OC [Compound 102, 4-(2,1,3-benzothiadiazol-4-ylamino)-5-(3,4-dimethoxyphenyl)nicotinonitrile] | – | – | 960 nM
COCCOc1cc(-c2cncc(C#N)c2Nc2ccc3[nH]ccc3c2)ccc1OC [Compound 154, 4-(1H-indol-5-ylamino)-5-[4-methoxy-3-(2-methoxyethoxy)phenyl]nicotinonitrile] | 320 nM | 360 nM | –
COc1ccc(-c2cncc(C#N)c2Nc2cccc3[nH]ccc23)cc1OC [Compound 109, 5-(3,4-dimethoxyphenyl)-4-(1H-indol-4-ylamino)nicotinonitrile] | 13 nM | 40 nM | 150 nM
COc1ccc(-c2cncc(C#N)c2Nc2ccc3cc[nH]c3c2)cc1OC [Compound 108, 5-(3,4-dimethoxyphenyl)-4-(1H-indol-6-ylamino)nicotinonitrile] | 450 nM | 2250 nM | 1010 nM
N#Cc1cncc(-c2cccc(-c3ccc(Cl)cc3)c2)c1Nc1ccc2[nH]ccc2c1 [Compound 131, 5-(4′-chlorobiphenyl-3-yl)-4-(1H-indol-5-ylamino)nicotinonitrile] | 120 nM | 50 nM | –
COCCOc1ccc(-c2cncc(C#N)c2Nc2cccc3[nH]ccc23)cc1OC [Compound 159, 4-(1H-indol-4-ylamino)-5-[3-methoxy-4-(2-methoxyethoxy)phenyl]nicotinonitrile] | 16 nM | 60 nM | –
COc1ccc(-c2cncc(C#N)c2Nc2cccc3ncccc23)cc1OC [Compound 104, 5-(3,4-dimethoxyphenyl)-4-(quinolin-5-ylamino)nicotinonitrile] | – | – | 6560 nM
COc1ccc(-c2cncc(C#N)c2Nc2cccc3cnccc23)cc1OC [Compound 103, 5-(3,4-dimethoxyphenyl)-4-(isoquinolin-5-ylamino)nicotinonitrile] | – | – | 5680 nM

— patent publication US7781591B2, “Substituted 3-cyanopyridines as protein kinase inhibitors” (Wyeth LLC, priority 2006, dated 2010)
